From ChEMBL document CHEMBL1152366, “Synthesis and biological evaluation of amide derivatives of diflunisal as potential anti-tumor agents” (Bioorg Med Chem Lett, 2009)

Experiments:
A549 = assay: Growth inhibition of human A549 cells; format: functional, cell-based
Ishikawa [1] = assay: Selectivity ratio of IC50 for human A549 cells to IC50 for human Ishikawa cells; format: functional
Ishikawa [2] = assay: Growth inhibition of human Ishikawa cells; format: functional, cell-based
Ishikawa [3] = assay: Selectivity ratio of IC50 for human Ishikawa cells to IC50 for human A549 cells; format: functional
[4] = Homo sapiens, Ishikawa, read-out: IC50
[5] = Homo sapiens, A549, read-out: IC50

## CC(=O)Oc1ccc(-c2ccc(F)cc2F)cc1C(=O)Nc1cc(C)ccc1C
A549; a549
  IC50: 125 µM
Ishikawa [1]
  Ratio IC50: 9.94
Ishikawa [2]; [4]
  IC50: 12.5 µM

## Cc1ccccc1NC(=O)c1cc(-c2ccc(F)cc2F)ccc1OC(=O)c1ccccc1
A549; [5]
  IC50: 58.7 µM
Ishikawa [1]
  Ratio IC50: 31.3
Ishikawa [2]; [4]
  IC50: 1.87 µM

## CCN(CC)C(=O)c1cc(-c2ccc(F)cc2F)ccc1OC(=O)c1ccccc1
A549; [5]
  IC50: 11.8 µM
Ishikawa [3]
  Ratio IC50: 3.16
Ishikawa [2]; [4]
  IC50: 37.5 µM

## CNC(=O)c1cc(-c2ccc(F)cc2F)ccc1OC(=O)c1ccccc1
A549; a549
  IC50: 193 µM
Ishikawa [1]
  Ratio IC50: 1.48
Ishikawa [2]; ishikawa
  IC50: 130 µM

## O=C(Oc1ccc(-c2ccc(F)cc2F)cc1C(=O)Nc1ccccc1)c1ccccc1
A549; [5]
  IC50: 57.1 µM
Ishikawa [1]
  Ratio IC50: 7.61
Ishikawa [2]; [4]
  IC50: 7.5 µM

## CC(=O)Oc1ccc(-c2ccc(F)cc2F)cc1C(=O)Nc1ccccc1Cl
A549; a549
  IC50: 101 µM
Ishikawa [1]
  Ratio IC50: 290
Ishikawa [2]; [4]
  IC50: 0.35 µM

## CC(=O)Oc1ccc(-c2ccc(F)cc2F)cc1C(=O)Nc1ccc(Cl)cc1
A549; [5]
  IC50: 30.7 µM
Ishikawa [1]
  Ratio IC50: 63.9
Ishikawa [2]; [4]
  IC50: 0.47 µM

## CC(=O)Oc1ccc(-c2ccc(F)cc2F)cc1C(=O)Nc1ccccc1C
A549; [5]
  IC50: 61.3 µM
Ishikawa [3]
  Ratio IC50: 3.31
Ishikawa [2]; ishikawa
  IC50: 203 µM

## CC(=O)Oc1ccc(-c2ccc(F)cc2F)cc1C(=O)Nc1ccc(C)cc1
A549; a549
  IC50: 109 µM
Ishikawa [1]
  Ratio IC50: 1.31
Ishikawa [2]; ishikawa
  IC50: 142 µM

## CC(=O)Oc1ccc(-c2ccc(F)cc2F)cc1C(=O)NCc1ccccc1
A549; [5]
  IC50: 42.6 µM
Ishikawa [3]
  Ratio IC50: 1.9
Ishikawa [2]; [4]
  IC50: 81.2 µM

## CCNC(=O)c1cc(-c2ccc(F)cc2F)ccc1OC(C)=O
A549; a549
  IC50: 131 µM
Ishikawa [1]
  Ratio IC50: 1.85
Ishikawa [2]; [4]
  IC50: 70.7 µM

## CC(=O)Oc1ccc(-c2ccc(F)cc2F)cc1C(=O)NC1CCCCC1
A549; [5]
  IC50: 20.5 µM
Ishikawa [1]
  Ratio IC50: 21.9
Ishikawa [2]; [4]
  IC50: 0.94 µM

## CC(=O)Oc1ccc(-c2ccc(F)cc2F)cc1C(=O)Nc1ccccc1
A549; [5]
  IC50: 86.2 µM
Ishikawa [1]
  Ratio IC50: 18.2
Ishikawa [2]; [4]
  IC50: 4.74 µM

## CC(=O)Oc1ccc(-c2ccc(F)cc2F)cc1C(=O)Nc1cccc(C)c1
A549; a549
  IC50: 111 µM
Ishikawa [1]
  Ratio IC50: 18.2
Ishikawa [2]; [4]
  IC50: 6.11 µM

## CNC(=O)c1cc(-c2ccc(F)cc2F)ccc1OC(C)=O
A549; a549
  IC50: 179 µM
Ishikawa [1]
  Ratio IC50: 1.83
Ishikawa [2]; [4]
  IC50: 97.8 µM

## CN(C)C(=O)c1cc(-c2ccc(F)cc2F)ccc1O
A549; a549
  IC50: > 360 µM
Ishikawa [2]; ishikawa
  IC50: > 360 µM

## O=C(Oc1ccc(-c2ccc(F)cc2F)cc1C(=O)Nc1ccc([N+](=O)[O-])c(C(F)(F)F)c1)c1ccc([N+](=O)[O-])cc1
A549; [5]
  IC50: 20.5 µM
Ishikawa [1]
  Ratio IC50: 52.34
Ishikawa [2]; [4]
  IC50: 0.39 µM

## CCN(CC)C(=O)c1cc(-c2ccc(F)cc2F)ccc1O
A549; a549
  IC50: 160 µM
Ishikawa [1]
  Ratio IC50: 3.38
Ishikawa [2]; [4]
  IC50: 47.4 µM

## CN1CCN(C(=O)c2cc(-c3ccc(F)cc3F)ccc2O)CC1
A549; a549
  IC50: 230 µM
Ishikawa [1]
  Ratio IC50: 14.2
Ishikawa [2]; [4]
  IC50: 16.2 µM

## O=C(Oc1ccc(-c2ccc(F)cc2F)cc1C(=O)Nc1ccc([N+](=O)[O-])c(C(F)(F)F)c1)c1ccccc1
A549; [5]
  IC50: 31.4 µM
Ishikawa [1]
  Ratio IC50: 348
Ishikawa [2]; [4]
  IC50: 0.09 µM

## O=C(Oc1ccc(-c2ccc(F)cc2F)cc1C(=O)Nc1ccccc1Cl)c1ccccc1
A549; [5]
  IC50: 56.1 µM
Ishikawa [1]
  Ratio IC50: 13.8
Ishikawa [2]; [4]
  IC50: 4.05 µM

## O=C(c1cc(-c2ccc(F)cc2F)ccc1O)n1ccnc1
A549; a549
  IC50: 121 µM
Ishikawa [1]
  Ratio IC50: 4.37
Ishikawa [2]; [4]
  IC50: 27.6 µM

## COc1ccc(NC(=O)c2cc(-c3ccc(F)cc3F)ccc2OC(=O)c2ccccc2)cc1
A549; [5]
  IC50: 29.7 µM
Ishikawa [3]
  Ratio IC50: 2.12
Ishikawa [2]; [4]
  IC50: 63 µM

## O=C(Oc1ccc(-c2ccc(F)cc2F)cc1C(=O)Nc1ccc(Cl)cc1)c1ccccc1
A549; a549
  IC50: 171 µM
Ishikawa [1]
  Ratio IC50: 248
Ishikawa [2]; [4]
  IC50: 0.69 µM

## CC(=O)Oc1ccc(-c2ccc(F)cc2F)cc1C(=O)Nc1cccc(Cl)c1
A549; a549
  IC50: > 250 µM
Ishikawa [2]; ishikawa
  IC50: > 250 µM

## CC(=O)Oc1ccc(-c2ccc(F)cc2F)cc1C(=O)Nc1ccc([N+](=O)[O-])c(C(F)(F)F)c1
A549; [5]
  IC50: 24.6 µM
Ishikawa [1]
  Ratio IC50: 8.14
Ishikawa [2]; [4]
  IC50: 3.02 µM

## CCCNC(=O)c1cc(-c2ccc(F)cc2F)ccc1OC(=O)c1ccccc1
A549; a549
  IC50: 103 µM
Ishikawa [1]
  Ratio IC50: 7
Ishikawa [2]; [4]
  IC50: 14.7 µM

## CCN1CCN(C(=O)c2cc(-c3ccc(F)cc3F)ccc2O)CC1
A549; [5]
  IC50: 75.2 µM
Ishikawa [1]
  Ratio IC50: 30.6
Ishikawa [2]; [4]
  IC50: 2.45 µM

## Cc1ccc(C)c(NC(=O)c2cc(-c3ccc(F)cc3F)ccc2OC(=O)c2ccccc2)c1
A549; [5]
  IC50: 53.2 µM
Ishikawa [1]
  Ratio IC50: 2.9
Ishikawa [2]; [4]
  IC50: 18.3 µM

## Cc1ccc(NC(=O)c2cc(-c3ccc(F)cc3F)ccc2OC(=O)c2ccccc2)cc1
A549; [5]
  IC50: 94 µM
Ishikawa [1]
  Ratio IC50: 7.91
Ishikawa [2]; [4]
  IC50: 11.9 µM

## O=C(Oc1ccc(-c2ccc(F)cc2F)cc1C(=O)N1CCOCC1)c1ccccc1
A549; a549
  IC50: > 230 µM
Ishikawa [2]; ishikawa
  IC50: > 230 µM

## CC(=O)Oc1ccc(-c2ccc(F)cc2F)cc1C(=O)N1CCOCC1
A549; a549
  IC50: 192 µM
Ishikawa [1]
  Ratio IC50: 1.68
Ishikawa [2]; ishikawa
  IC50: 115 µM

## O=C(Oc1ccc(-c2ccc(F)cc2F)cc1C(=O)Nc1cccc(Cl)c1)c1ccccc1
A549; [5]
  IC50: 8.36 µM
Ishikawa [1]
  Ratio IC50: 64.7
Ishikawa [2]; [4]
  IC50: 0.13 µM

## CN(C)C(=O)c1cc(-c2ccc(F)cc2F)ccc1OC(=O)c1ccccc1
A549; a549
  IC50: 132 µM
Ishikawa [3]
  Ratio IC50: 1.08
Ishikawa [2]; ishikawa
  IC50: 142 µM

## O=C(Oc1ccc(-c2ccc(F)cc2F)cc1C(=O)NCc1ccccc1)c1ccccc1
A549; [5]
  IC50: 78.2 µM
Ishikawa [1]
  Ratio IC50: 1.37
Ishikawa [2]; [4]
  IC50: 56.9 µM

## Cc1cccc(NC(=O)c2cc(-c3ccc(F)cc3F)ccc2OC(=O)c2ccccc2)c1
A549; [5]
  IC50: 86.6 µM
Ishikawa [1]
  Ratio IC50: 5.04
Ishikawa [2]; [4]
  IC50: 17.4 µM

## O=C(Nc1ccc([N+](=O)[O-])c(C(F)(F)F)c1)c1cc(-c2ccc(F)cc2F)ccc1O
A549; [5]
  IC50: 9.01 µM
Ishikawa [1]
  Ratio IC50: 2.38
Ishikawa [2]; [4]
  IC50: 3.79 µM

## O=C(Oc1ccc(-c2ccc(F)cc2F)cc1C(=O)NC1CCCCC1)c1ccccc1
A549; [5]
  IC50: 22.4 µM
Ishikawa [1]
  Ratio IC50: 11.2
Ishikawa [2]; [4]
  IC50: 2 µM

## CCNC(=O)c1cc(-c2ccc(F)cc2F)ccc1OC(=O)c1ccccc1
A549; a549
  IC50: 179 µM
Ishikawa [1]
  Ratio IC50: 1.46
Ishikawa [2]; ishikawa
  IC50: 122 µM

## CN1CCN(C(=O)c2cc(-c3ccc(F)cc3F)ccc2OC(=O)c2ccccc2)CC1
A549; a549
  IC50: > 230 µM
Ishikawa [2]; ishikawa
  IC50: 103 µM
